Assay results reported in patent US5792784A, “Coupling product obtained from histamine and an amino acid” (Babizhayev; Marc, priority 1993, dated 1998).

Assays:
[1] = Inhibition of linoleic acid peroxidation (Fe/ascorbic acid; TBA/MDA); assay type: biochemical; details: 25 mM (mixture: 25 mM each), linoleic acid 0.25 mg/ml; for MDA per mg of linoleic acid: control 7.95
Protocol: oxidation substrate: linoleic acid (0.25 mg/ml), free radicals generating system: Fe/ascorbic acid detection: thiobarbituric acid (TBA)/malondialdehyde (MDA)

[2] = tested on: gingival and buccal mucosa; experiment: Repairing activity on the mucosa in stomatitis gingivitis; assay type: in vivo, patients; details: aqueous gel 0.28%
Source text: We have been able to study this action on stomatitis gingivitis of various origin (dental prothesis badly adapted, the taking by mistake of a corrosive liquid, and colbaltotherapy of the oropharyngeal aera.
In all the cases, the causes of deterioration of the gingival and buccal mucosa have been stopped. Over and above the classical treatments that were adapted and systematically given, was given to 50% of the patients, an aqueous orange flavour gel containing 0.28% of N-acetyl-3-phenyl-3-aminopropionyl-histamine.

cataract = experiment: Cataract patients: modification of the visual acuity at the end of 24 months; assay type: in vivo; details: 1% in isotonic saline, only one daily local dose
Source text: This example concerns the utilization of the β-alanyl-histamine to treat patients affected by cataract.
The study has been designed for a prospective evaluation of the modifications of the lens opacity in patients effected by cataract. All the patients have undergone an initial ophtalmic examination. It involved the making of the medical historical record of the patient, a measurement of the visual acuity at a maximum correction, direct or indirect ophtalmoscopies, an evaluation of the opacities with the slit lamp, a clinical grading of the lens after maximal mydriasis, a classification according to the cataract type, and lens pictures by retroillumination. Moreover, samples of blood have been taken at the beginning, then in follow-up for chemical analysis.
The general view has allowed to establish the initial state of patients before the treatment (definition of "base line").
Follow-up of ophtalmic examinations were carried out every two weeks for two months, then every month. They included maximum visual acuity after correction, direct or indirect ophtalmoscopies, a slit lamp examination, and after a maximum dilation of the pupil (excluding patients with primary open-angle glaucoma), a clinical lens grading, a classification of the cataract. Pictures also have been taken on lens observed by retroillumination or with the slit lamp.
In this study, differents groups have been determined, to be seen:
A group reference 1, with non-treated patients (5 patients, 7 eyes) […]
A group 3, has been submitted to the same treatment than the group 2, stimulated by an "attack type of treatment" during the first two weeks: 2 subcon-junctival junctival injections twice a week of 0.10 to 0.15 ml of the saline defined for the group 2 (3 patients, 4 eyes).
A group 4, which was given a local dose by way of an eye drop of isotonic saline twice a day (5 patients 7 eyes), the group 4 being like the group 1, a reference group.
Following the protocol described above, we determine the values of the optic density of the lens according to its opacity as well as the visual acuity, and the whole for 24 months. Considering these two parameters, we obtain tables giving results concerning the modification of the visual acuity at the end of 24 months in Tables 1 and 2, and the results concerning the modification of the visual opacity at the end of 24 months in Tables 3 and 4.

[3] = Protection of micro seaweed oil against oxidation (malondialdehyde dosage, one month); details: 20 mmol per L oil
Source text: The pseudo-dipeptides products also can be used to protect cosmetic oils easily oxidizable, rich in unsaturated fatty acids formulated in cosmetic or dietetic.
It has been necessary to add 15 to 25 mmol of pseudo-dipeptides products of the invention per liter of oil according to the following formulation: […]
20 mmol of acetylated b-alanyl-histamine oil extracted from micro seaweed cultured in sea water very rich in unsaturated fatty acids, including EPA qs for 1L.
We have compared the ageing of this protected oil to the non-protected oil at the end of a month by the malondialdehyde dosage.

[4] = Inhibition of phosphatidylcholine liposome peroxidation (Fe/ascorbic acid; TBA/MDA); details: for MDA per mg of phospholipids: control 4.4
Source text: oxidation substrate: phosphatidylcholine liposomes
free radicals generating system : Fe/ascorbic acid detection: thiobarbituric acid (TBA)/malondialdehyde (MDA)

[5] = "Peroxidase" type activity on liposome model: reduction of phosphatidylcholine hydroperoxides (PC-OOH); assay type: biochemical
Protocol: The "peroxidase" type activity also has been evaluated on a "liposome" model. The phosphatidylcholine hydroperoxides (PC-OOH) are prepared according to a similar procedure to the one already described for the linoleic acid monoperoxide.
The peroxide species reduction is followed by dosing the remaining peroxides according to the method laid down by Hicks M and Gebicki J. M.--Anal. Biochem, vol 99, (1979), p. 249-253.

[6] = Inhibition of deoxyribose oxidation (superoxide from xanthine oxidase/hypoxanthine; TBA/MDA detection); assay type: biochemical; details: 10 mM
Source text: Several in vitro tests have been carried out in order to reveal the evoked different antioxidant properties.
Experimental procedure described by J. M. C. Gutteridge in Biochemistry Journal, vol. 224 (1984), p. 761-767: oxidation substrate: deoxyribose
Superoxide anions production system: xanthine oxidase/hypoxanthine detection: thiobarbituric acid/malondialdehyde (MDA)

murine splenocytes = experiment: Immunostimulating activity in vitro on murine splenocytes (tritiated thymidine incorporation); assay type: cell-based; details: average of three measures
Source text: The procedure is extracted from: J. Kunert-Radek, H. Stepien, K. Lyson and M. Pawlikowski--"Effects of calcium channel modulators on the proliferation of mouse spleen lymphocytes in vitro"--Agents and Actions, vol. 29, Nos 3-4 (1990), p. 254-258.
The cell proliferation is followed by the measurement of the extent of incorporation of tritriated thymidine in the cells, expressed in numbers of desintegrations per mn, deducted from the background.
The results obtained with an immunostimulator of reference, concanavaline A, are given as a comparison.
The immunostimulating effect is expressed by an Index of Stimulation (IS) [formula]
The given values are corresponding to the average of three measures.

gastric ulcer = details: rats with limited food-intake-time; cited from earlier work
[7] = Tests with peroxidized compounds: reducing behaviour; assay type: biochemical
[8] = "Peroxidase" activity: reduction of 13-monoperoxide of linoleic acid (L-OOH); assay type: biochemical; details: 10 mM; 13-monoperoxide linoleic acid 0.5 mM; control 36.7
Protocol: Lipid peroxides evolution is monitored with the help of 3 methods:
1°) spectrophotometric measure at 233 nm
(O. S. Privett, C. Nickell, W. O. Lundberg, and P. D. Bayer, dans J.Am.Oil Chem. Soc, Vol 32 (1955), P.505-511
2°) Iodometric dosage: M.Hicks' and J. M. Gebicki's method, Analytical Biochemistry, vol 99 (1979), p 249-253.
3°) Chromatography on silica gel plate (hexane/ether/acetic acid 8/7/0.1).
(a) 13-monoperoxide linoleic acid 0.5 mM without reducing agent (preparation according to H. W. Gardner's method Lipids, Vol.10 (1975), p. 248-252).

c1c[nH]cn1 [Imidazole]
% inhibition [1]: 11%
MDA per mg of linoleic acid [1]: 6.95 mol MDA per mg of linoleic aci

CC(=O)NC(CC(=O)NCCc1c[nH]cn1)c1ccccc1 (stereo not shown) [N-acetyl-3-phenyl-3-aminopropionyl-histamine]
tolerance [2]: excellent tolerance

CC(=O)NCCC(=O)NCCc1c[nH]cn1 [N-acetyl-β-alanyl-histamine]
results of eye drop treatment versus those previously obtained (cataract): identical to the ones previously obtained
protection against oxidation (malondialdehyde dosage) [3]: proves well the activity of the acetylated-β-alanyl-histamine in the protection against oxidation

NCCc1c[nH]cn1 [Histamine, histamine]
% inhibition [1]: -32%
MDA per mg of linoleic acid [1]: 10.15 mol MDA per mg of linoleic aci
% inhibition ([4]; 1 M (so in the source)): -45%
MDA per mg of phospholipids ([4]; 1 M (so in the source)): 6.4 mol MDA per mg of phospholipid
% inhibition ([4]; 10 M (so in the source)): -63%
MDA per mg of phospholipids ([4]; 10 M (so in the source)): 6.8 mol MDA per mg of phospholipid

NCCC(=O)N[C@@H](Cc1c[nH]cn1)C(=O)O [L-carnosine, β-alanyl-histidine, reference compound]
% inhibition [1]: 59%
MDA per mg of linoleic acid [1]: 3.24 mol MDA per mg of linoleic aci
MDA per mg of phospholipids ([4]; 10 mM): 2.0 mol MDA per mg of phospholipid
number of moles of PC-OOH reduced/initial number of moles of PC/hour ([5]; 10 mM): 3.16 × 10^-3 moles of PC-OOH reduced/initia
number of moles of PC-OOH reduced/initial number of moles of PC/hour ([5]; 25 mM): 3.65 × 10^-3 moles of PC-OOH reduced/initia
% inhibition of deoxyribose oxidation [6]: 37%

concanavaline A [reference compound]
Index of Stimulation (IS) (murine splenocytes; 2.5 μg/ml): 4.8
Index of Stimulation (IS) (murine splenocytes; 5 μg/ml): 25.1
Index of Stimulation (IS) (murine splenocytes; 10 μg/ml): 20.5
Index of Stimulation (IS) (murine splenocytes; 25 μg/ml): 12.6

N- (3-aminopropionyl)--L-histidinato zinc [Z-103]
gastric ulcer treatment (gastric ulcer): good results

N[C@@H](Cc1c[nH]cn1)C(=O)O [Histidine]
% inhibition ([4]; 1 mM): -48%
MDA per mg of phospholipids ([4]; 1 mM): 6.6 mol MDA per mg of phospholipid

[BH4-].[Na+] [NaBH4, sodium borohydride, reference compound]
reducing behaviour towards peroxidized compounds [7]: inhibits in an identical way the reaction of degradation
"peroxidase" activity [8]: 312.5 mol of L-OOH reduced/hour

NCCC(=O)O [β-alanine]
% inhibition [1]: 0%
MDA per mg of linoleic acid [1]: 7.91 mol MDA per mg of linoleic aci
